This test has as its target T1, GIRK heteromers (UniProt P48542+P48549).
T1 construct: expressed in transfected cells; HEK293-T in the methods
T1 sequence (P48549 1-501): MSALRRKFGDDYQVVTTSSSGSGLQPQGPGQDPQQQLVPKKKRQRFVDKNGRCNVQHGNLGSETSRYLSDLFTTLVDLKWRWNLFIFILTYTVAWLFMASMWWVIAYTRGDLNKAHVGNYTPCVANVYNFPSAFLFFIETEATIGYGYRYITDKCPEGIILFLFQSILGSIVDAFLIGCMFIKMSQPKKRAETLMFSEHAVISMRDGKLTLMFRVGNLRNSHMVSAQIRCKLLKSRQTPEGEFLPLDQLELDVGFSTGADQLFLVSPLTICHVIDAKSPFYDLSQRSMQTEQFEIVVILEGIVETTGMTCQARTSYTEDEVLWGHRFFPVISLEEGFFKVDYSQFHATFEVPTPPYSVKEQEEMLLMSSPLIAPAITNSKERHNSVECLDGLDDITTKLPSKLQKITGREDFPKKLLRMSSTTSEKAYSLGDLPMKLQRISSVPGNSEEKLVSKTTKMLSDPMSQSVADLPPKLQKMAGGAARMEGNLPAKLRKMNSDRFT
T1 sequence (P48542 1-425): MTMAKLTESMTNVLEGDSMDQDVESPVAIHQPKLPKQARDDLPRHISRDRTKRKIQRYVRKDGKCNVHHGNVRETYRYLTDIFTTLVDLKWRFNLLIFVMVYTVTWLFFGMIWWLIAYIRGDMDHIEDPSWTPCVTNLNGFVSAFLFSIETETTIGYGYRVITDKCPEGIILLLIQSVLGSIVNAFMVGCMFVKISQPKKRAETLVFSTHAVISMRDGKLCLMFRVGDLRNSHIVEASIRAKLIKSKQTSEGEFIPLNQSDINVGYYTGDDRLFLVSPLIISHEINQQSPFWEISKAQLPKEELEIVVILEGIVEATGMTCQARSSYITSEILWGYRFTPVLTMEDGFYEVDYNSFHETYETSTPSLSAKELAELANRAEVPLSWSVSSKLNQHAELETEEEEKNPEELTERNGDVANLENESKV
Nature of the test: concentration-response after PIP2 hydrolysis by light-sensitive phosphatase, whole-cell patch-clamp in mammalian cells. The test is classed as cell-based. As to conditions: stimulation of light-sensitive phosphatase, FIGS. 20A-20C. The text has this:
The MD simulations indicated a PIP2-dependent activation effect by ML297 and the GAT compounds in GIRK heteromers leading to channel gating. To experimentally test the role of PIP2 in channel activation by ML297 and the GAT compounds, the inventors proceeded to first manipulate PIP2 levels by inducing a light-sensitive phosphatase in whole-cell patch-clamp experiments in mammalian cells and to examine the effects of the activating compounds (FIGS. 20A-20C).
Light-activated phosphatase system: The inventors used a light-activated phosphatase system to dephosphorylate PIP2 that is comprised of two fusion proteins: CRY2-5-ptaseOCRL contains the photolyase domain of cryptochrome 2 (CRY2) and the inositol 5-phosphatase domain of the […] oculocerebrorenal syndrome protein (OCRL), while CIBN-CAAX contains the CRY2 binding domain (CIBN) and a C-terminal CAAX box for plasma membrane targeting. When CRY2-5-ptaseOCRL and CIBN-CAAX fusion proteins are co-expressed and exposed to blue light between 458-488 nm, the 5-ptase is localized to the plasma membrane, where it dephosphorylates PIP2. […] The 5-ptaseOCRL system was activated using a 460 nm LED (Luminus) that was focused on the cells through the objective lens of an inverted microscope (Nikon).
Patch-clamp recording: Whole-cell currents were recorded with an Axopatch 200B amplifier (Molecular Devices) controlled via a USB-interface (National Instruments) using WinWCP software (University of Strathclyde). Currents were acquired through a lowpass Bessel filter at 2 kHz and were digitized at 10 kHz. […] Cells for study were selected based on GFP expression using an epifluorescence microscope (Nikon). […] The barium-sensitive component of the current, observed when cells were perfused with the high-K^+ buffer, was analyzed and was determined by perfusing 5 mM BaCl2 in the high-K^+ buffer at the end of each experiment. […]

As to `Cc1cc(NC(=O)Nc2ccc(Br)s2)n(-c2ccccc2)n1` [GAT1508, 1-(5-bromothiophen-2-yl)-3-(3-methyl-1-phenyl-1H-pyrazol-5-yl)urea], the “decrease in potency following hydrolysis of PIP2” value (shortened to “decrease”) is around 2 fold.

Regarding `Cc1cc(NC(=O)Nc2ccc(C)s2)n(-c2ccccc2)n1` [GAT1521, 1-(3-methyl-1-phenyl-1H-pyrazol-5-yl)-3-(5-methylthiophen-2-yl)urea], the “decrease” value is around 3.7 fold.

`Cc1cc(NC(=O)Nc2ccc(F)c(F)c2)n(-c2ccccc2)n1` [ML297, reference compound]: the “decrease” value was around 3 fold.

These data come from US12351574B2, “Selective ligands for modulation of GIRK channels” (Northeastern University, priority 2018, dated 2025).
